Assay: Solubility of RAPA in the drug solvent of the stock solution
Type: physicochemical
Conditions: organic solvent or mixture; drug solvent of two or more solvents (absolute ethanol and latent solvent)
Excerpt: In the RAPA self-microemulsifying injection of the present disclosure, the drug solvent includes absolute ethanol and a latent solvent, and the latent solvent is one or more selected from the group consisting of propylene glycol (PG), polyethylene glycol (PEG) 300, and PEG 400. The drug solvent of the present disclosure is a mixed solvent of two or more solvents in different proportions to dissolve RAPA, which can greatly improve the solubility of RAPA.

- solubility: ≤ 60 mg/mL
SMILES: CO[C@H]1C[C@@H]2CC[C@@H](C)[C@@](O)(O2)C(=O)C(=O)N2CCCC[C@H]2C(=O)O[C@H]([C@H](C)C[C@@H]2CC[C@@H](O)[C@H](OC)C2)CC(=O)[C@H](C)/C=C(\C)[C@@H](O)[C@@H](OC)C(=O)[C@H](C)C[C@H](C)/C=C/C=C/C=C/1C [RAPA, rapamycin]
